Our source for the Ki values is patent publication US8436159B2, “Glyphosate resistant class I 5-endolpyruvylshikimate-3-phosphate synthase (EPSPS)” (Monsanto Technology LLC, priority 2003, dated 2013).

Molecules are shown by their SMILES. Where a chain is given by its changes, count along the chain named.

Assay [1] concerns the target T1, maize (Zea mays) class I EPSPS variant TIPG (T102I, P106G), pMON42480 (Zea mays, UniProt O24566, P106G/T102I).
T1 construct: pMON42480
T1 sequence (O24566 1-444 T102I/P106G): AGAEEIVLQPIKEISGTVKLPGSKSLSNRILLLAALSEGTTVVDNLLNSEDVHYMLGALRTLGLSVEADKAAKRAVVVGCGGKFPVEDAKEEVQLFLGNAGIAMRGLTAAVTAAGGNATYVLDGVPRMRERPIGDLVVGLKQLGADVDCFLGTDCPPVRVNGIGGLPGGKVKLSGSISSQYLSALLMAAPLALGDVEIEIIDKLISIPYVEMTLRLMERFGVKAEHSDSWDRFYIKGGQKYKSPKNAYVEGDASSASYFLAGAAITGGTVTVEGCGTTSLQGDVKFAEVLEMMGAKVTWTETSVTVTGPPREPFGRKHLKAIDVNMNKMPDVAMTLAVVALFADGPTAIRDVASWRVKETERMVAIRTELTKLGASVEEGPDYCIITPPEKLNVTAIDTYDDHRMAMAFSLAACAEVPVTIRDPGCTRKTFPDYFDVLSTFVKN
As to the kind of experiment: EPSPS steady-state kinetics, TIPG variant. The assay is classed as biochemical. An excerpt: (§1) The double variants of the present invention were made using pMON58452 (FIG. 5) as the template. This pMON58452 EPSPS gene template contains the maize EPSPS double variant T102I, P106T (TIPT) that was constructed by mutagenesis of pMON70467 with the mutagenesis primers mEmut-9-U and mEmut-10-L. The various mutagenesis primer sequences were designed and then were synthesized by Invitrogen Corp., Custom Primers and used in combination in a PCR to create the variant EPSPS coding sequences. The PCR was set up in a 50 μl reaction in the following manner: dH2O 38 μl; 2 mM dNTP 1 μL; 10× buffer 5 μL; pMON58452 1 μL (10 ng); primer-U 2 μL; primer-L 2 μL; pfu Turbo enzyme 1 μL. PCR was carried out on a MJ Research PTC-200 thermal cycler using the following program: Step 1—94° C. for 30 seconds; Step 2—94° C. for 30 seconds; Step 3—55° C. for 1 minute; Step 4—68° C. for 14 minute; Step 5—go to step 2, 16 times; Step 6—End. At the end of the PCR, 1 μl of the restriction enzyme DpnI was added to each 50 μl of PCR reaction and the mixture was incubated at 37° C. for 1 hour. […]

In assay [2] the target is T2, maize (Zea mays) class I EPSPS variant TIPC (T102I, P106C), pMON42485 (Zea mays, UniProt O24566, P106C/T102I).
T2 sequence (O24566 1-444 T102I/P106C): T1 sequence (O24566 1-444 T102I/P106G) with G106C
Nature of the assay: EPSPS steady-state kinetics, TIPC variant.
Source text: as §1

For another assay, the system named is E. coli EPSPS, native. The following applies: native enzyme; read-out: apparent Ki for glyphosate; cited from earlier work.

On to `O=C(O)CNCP(=O)(O)O` [glyphosate, N-phosphonomethylglycine], for which the Ki is 38.6 µM in assay [1]; 818 ± 74.4 µM in assay [2]; 500 nM with E. coli EPSPS, native.
